Measurements: ChEMBL document CHEMBL3217748, “Chemical synthesis and biological study of 4-carboxymethyl-epiafzelechin acid, an osteoprotective compound from the rhizomes of Drynaria fortunei” (2012)
The source made the active and inactive calls. No cut-off for these calls is given here.

Key:
UMR106 [1] = assay: Induction of rat UMR106 cell proliferation after 24 hrs by MTS assay; type: functional, cell-based
UMR106 [2] = assay: Induction of rat UMR106 cell differentiation after 24 hrs by ALP assay in presence of estrogen receptor antagonist ICI 182,780; type: functional, cell-based
[3] = Induction of rat UMR106 cell differentiation at 10^-10 M after 24 hrs by ALP assay relative to control; type: functional
UMR106 [4] = assay: Induction of rat UMR106 cell proliferation after 24 hrs by MTS assay in presence of estrogen receptor antagonist ICI 182,780; type: functional, cell-based
[5] = target: Estrogen receptor beta (Homo sapiens) (UniProt Q92731); assay: Transactivation of human ER-beta transfected in rat UMR106 cells at 10^-14 to 10^-6 M after 24 hrs by dual luciferase reporter gene assay; type: cell-based
Estrogen receptor beta (Homo sapiens), sequence (Q92731 whole entry): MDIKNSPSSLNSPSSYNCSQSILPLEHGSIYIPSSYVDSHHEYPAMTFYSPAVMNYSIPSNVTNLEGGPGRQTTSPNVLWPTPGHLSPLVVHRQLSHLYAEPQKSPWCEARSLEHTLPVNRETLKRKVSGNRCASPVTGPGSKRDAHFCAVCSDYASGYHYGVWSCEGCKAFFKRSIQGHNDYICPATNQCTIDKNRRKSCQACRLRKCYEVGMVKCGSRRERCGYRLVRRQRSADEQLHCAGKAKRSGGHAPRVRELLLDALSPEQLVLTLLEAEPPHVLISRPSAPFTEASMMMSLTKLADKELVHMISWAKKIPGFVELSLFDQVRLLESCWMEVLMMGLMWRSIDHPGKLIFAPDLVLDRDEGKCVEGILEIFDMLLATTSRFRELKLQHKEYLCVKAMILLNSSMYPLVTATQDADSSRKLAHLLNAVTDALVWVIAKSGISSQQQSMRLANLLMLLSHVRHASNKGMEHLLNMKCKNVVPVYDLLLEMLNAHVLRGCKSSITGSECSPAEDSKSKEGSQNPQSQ

UMR106 [6] = assay: (§1) Induction of rat UMR106 cell differentiation at 10^-8 M after 24 hrs by ALP assay relative to control; type: functional
UMR106 [7] = assay: Induction of rat UMR106 cell proliferation assessed as increase in cell number at 10^-8 M after 24 hrs by MTS assay; type: functional, cell-based
UMR106 [8] = assay: Induction of rat UMR106 cell proliferation at 10^-8 M after 24 hrs by MTS assay in presence of estrogen receptor antagonist ICI 182,780; type: functional, cell-based
[9] = as §1; type: functional
[10] = Induction of rat UMR106 cell proliferation assessed as increase in cell number at 10^-10 to 10^-8 M after 24 hrs by MTS assay relative to control; type: functional
[11] = Induction of rat UMR106 cell differentiation at 10^-6 M after 24 hrs by ALP assay relative to control; type: functional

## O=C1C[C@H]2c3c(O)cc(O)cc3O[C@H](c3ccc(O)cc3)[C@H]2O1
UMR106 [1]
  Activity: Dose-dependent effect
UMR106 [2]
  Activity: Active
[3]
  Activity: 10%
UMR106 [4]
  Activity: inactive
[5]
  Activity: inactive

## C[C@]12CC[C@@H]3c4ccc(O)cc4CC[C@H]3[C@@H]1CC[C@@H]2O
UMR106 [6]
  Activity: Active
UMR106 [7]
  Activity: Active
UMR106 [1]
  Activity: Dose-dependent effect
UMR106 [2]
  Activity: Active
UMR106 [8]
  Activity: inactive

## O=C(O)C[C@H]1c2c(O)cc(O)cc2O[C@H](c2ccc(O)cc2)[C@@H]1O
[9]
  Activity: 14%
UMR106 [1]
  Activity: Dose-dependent effect
[10]
  fold change (FC): 1.4
UMR106 [2]
  Activity: Active
[11]
  Activity: 18%
[3]
  Activity: 18%
UMR106 [4]
  Activity: inactive
[5]
  Activity: inactive
